Legend:
cocklebur = assay: Test B pre/postemergence cocklebur; assay type: in vivo, Xanthium strumarium
Method in brief: (§1)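 Test chemicals in a non-phytotoxic solvent mixture with surfactant were sprayed preemergence onto planted seeds and postemergence onto plants 2 to 18 cm tall (1- to 4-leaf stage). After twelve to sixteen days in a greenhouse, injury was visually rated against untreated controls from 0 (no effect) to 10 (complete control).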

giant foxtail = assay: Test B pre/postemergence giant foxtail; assay type: in vivo, Setaria faberii
Method in brief: as §1

sugar beet = assay: Test B pre/postemergence sugar beet; assay type: in vivo, Beta vulgaris
Method in brief: as §1

duck salad = assay: Test B flood test duck salad; assay type: in vivo, Heteranthera limosa; settings: Pre-emergence
Method in brief: (§2)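 Flood test on plants grown to the 2-leaf stage; treated plants kept in greenhouse twelve to sixteen days, then visually rated against controls on a 0 (no effect) to 10 (complete control) scale.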

purple nutsedge = assay: Test B pre/postemergence purple nutsedge; assay type: in vivo, Cyperus rotundus
Method in brief: as §1

rice = assay: Test B flood test rice; assay type: in vivo, Oryza sativa; settings: Pre-emergence
Method in brief: as §2

blackgrass = assay: Test B pre/postemergence blackgrass; assay type: in vivo, Alopecurus myosuroides
Method in brief: as §1

wheat = assay: Test B pre/postemergence wheat; assay type: in vivo, Triticum aestivum
Method in brief: as §1

corn = assay: Test B pre/postemergence corn; assay type: in vivo, Zea mays
Method in brief: as §1

bedstraw = assay: Test B pre/postemergence bedstraw; assay type: in vivo, Galium aparine
Method in brief: as §1

wild oat = assay: Test B pre/postemergence wild oat; assay type: in vivo, Avena fatua
Method in brief: as §1

soybean = assay: Test B pre/postemergence soybean; assay type: in vivo, Glycine max
Method in brief: as §1

velvetleaf = assay: Test B pre/postemergence velvetleaf; assay type: in vivo, Abutilon theophrasti
Method in brief: as §1

surinam grass = assay: Test B pre/postemergence surinam grass; assay type: in vivo, Brachiaria decumbens
Method in brief: as §1

pigweed = assay: Test B pre/postemergence pigweed; assay type: in vivo, Amaranthus retroflexus
Method in brief: as §1

crabgrass = assay: Test B pre/postemergence crabgrass; assay type: in vivo, Digitaria sanguinalis
Method in brief: as §1

[1] = Postemergence, Rate 1000 g/ha, scale 0 to 10 (0 no effect, 10 complete control)
[2] = Preemergence, Rate 250 g/ha, scale of 0 to 10 where 0 is no effect and 10 is complete control
[3] = Preemergence, Rate 500 g/ha, scale of 0 to 10 where 0 is no effect and 10 is complete control
[4] = Rate 125 g/ha, Postemergence, scale of 0 to 10 where 0 is no effect and 10 is complete control
[5] = Rate 250 g/ha, Postemergence, scale of 0 to 10 where 0 is no effect and 10 is complete control
[6] = Rate 500 g/ha, Postemergence, scale 0 to 10, 0 no effect, 10 complete control
[7] = Rate 1000 g/ha, Preemergence, scale 0 to 10 (0 no effect, 10 complete control)
[8] = Rate 1000 g/ha, scale 0 to 10 (0 no effect, 10 complete control)
[9] = Rate 125 g/ha, flood test species, scale 0 to 10 where 0 is no effect and 10 is complete control
[10] = Rate 250 g/ha, flood-test species, scale 0 to 10, 0 is no effect, 10 is complete control
[11] = Rate 500 g/ha, flood test species, scale 0 to 10 (0 no effect, 10 complete control)

Structure (SMILES): CCOC(=O)C(C)N(C(=O)n1oc(=O)n(C(C)C)c1=O)c1ccc(F)cc1 (stereo not drawn) [Compound 302]
- Cocklebur plant response rating (cocklebur; [1]): 0
- Cocklebur plant response rating (0 to 10 scale) (cocklebur; Preemergence, Rate 125 g/ha): 0
- Cocklebur plant response rating (cocklebur; [2]): 0
- Cocklebur plant response rating (cocklebur; [3]): 0
- Cocklebur plant response rating (cocklebur; [4]): 0
- Plant response rating, Cocklebur (cocklebur; [5]): 0
- Cocklebur plant response rating (cocklebur; [6]): 0
- Plant response rating, Cocklebur (cocklebur; [7]): 0
- Giant foxtail plant response rating (giant foxtail; [1]): 7
- Giant foxtail plant response rating (0 to 10 scale) (giant foxtail; Preemergence, Rate 125 g/ha): 6
- Giant foxtail plant response rating (giant foxtail; [2]): 7
- Giant foxtail plant response rating (giant foxtail; [3]): 9
- Giant foxtail plant response rating (giant foxtail; [4]): 1
- Plant response rating, Giant foxtail (giant foxtail; [5]): 2
- Plant response rating, Giant foxtail (giant foxtail; [7]): 10
- Sugarbeets plant response rating (sugar beet; [1]): 2
- Sugarbeets plant response rating (0 to 10 scale) (sugar beet; Preemergence, Rate 125 g/ha): 0
- Sugarbeets plant response rating (sugar beet; [2]): 2
- Sugarbeets plant response rating (sugar beet; [3]): 2
- Sugarbeets plant response rating (sugar beet; [4]): 0
- Plant response rating, Sugarbeets (sugar beet; [5]): 1
- Plant response rating, Sugarbeets (sugar beet; [7]): 4
- Ducksalad plant response rating (duck salad; [8]): 0
- Ducksalad plant response rating (duck salad; [9]): 0
- Ducksalad plant response rating (duck salad; [10]): 0
- Ducksalad plant response rating (duck salad; [11]): 0
- Nutsedge plant response rating (purple nutsedge; [1]): 0
- Nutsedge plant response rating (0 to 10 scale) (purple nutsedge; Preemergence, Rate 125 g/ha): 0
- Nutsedge plant response rating (purple nutsedge; [2]): 0
- Nutsedge plant response rating (purple nutsedge; [3]): 0
- Nutsedge plant response rating (purple nutsedge; [4]): 0
- Plant response rating, Nutsedge (purple nutsedge; [5]): 0
- Plant response rating, Nutsedge (purple nutsedge; [7]): 0
- Rice plant response rating (rice; [8]): 0
- Rice plant response rating (rice; [9]): 0
- Rice plant response rating (rice; [10]): 0
- Rice plant response rating (rice; [11]): 0
- Blackgrass plant response rating (blackgrass; [1]): 6
- Blackgrass plant response rating (0 to 10 scale) (blackgrass; Preemergence, Rate 125 g/ha): 0
- Blackgrass plant response rating (blackgrass; [2]): 2
- Blackgrass plant response rating (blackgrass; [3]): 5
- Blackgrass plant response rating (blackgrass; [4]): 0
- Plant response rating, Blackgrass (blackgrass; [5]): 0
- Blackgrass plant response rating (blackgrass; [6]): 2
- Plant response rating, Blackgrass (blackgrass; [7]): 6
- Wheat plant response rating (wheat; [1]): 1
- Wheat plant response rating (0 to 10 scale) (wheat; Preemergence, Rate 125 g/ha): 0
- Wheat plant response rating (wheat; [2]): 0
- Wheat plant response rating (wheat; [3]): 0
- Wheat plant response rating (wheat; [4]): 0
- Plant response rating, Wheat (wheat; [5]): 0
- Plant response rating, Wheat (wheat; [7]): 0
- Corn plant response rating (corn; [1]): 0
- Corn plant response rating (0 to 10 scale) (corn; Preemergence, Rate 125 g/ha): 0
- Corn plant response rating (corn; [2]): 0
- Corn plant response rating (corn; [3]): 0
- Corn plant response rating (corn; [4]): 0
- Plant response rating, Corn (corn; [5]): 0
- Corn plant response rating (corn; [6]): 0
- Plant response rating, Corn (corn; [7]): 0
- Bedstraw plant response rating (bedstraw; [1]): 0
- Bedstraw plant response rating (0 to 10 scale) (bedstraw; Preemergence, Rate 125 g/ha): 0
- Bedstraw plant response rating (bedstraw; [2]): 0
- Bedstraw plant response rating (bedstraw; [3]): 0
- Bedstraw plant response rating (bedstraw; [4]): 0
- Plant response rating, Bedstraw (bedstraw; [5]): 0
- Bedstraw plant response rating (bedstraw; [6]): 0
- Plant response rating, Bedstraw (bedstraw; [7]): 0
- Wild oats plant response rating (wild oat; [1]): 0
- Wild oats plant response rating (0 to 10 scale) (wild oat; Preemergence, Rate 125 g/ha): 0
- Wild oats plant response rating (wild oat; [2]): 2
- Wild oats plant response rating (wild oat; [3]): 5
- Wild oats plant response rating (wild oat; [4]): 0
- Plant response rating, Wild oats (wild oat; [5]): 0
- Plant response rating, Wild oats (wild oat; [7]): 6
- Soybean plant response rating (soybean; [1]): 5
- Soybean plant response rating (0 to 10 scale) (soybean; Preemergence, Rate 125 g/ha): 0
- Soybean plant response rating (soybean; [2]): 0
- Soybean plant response rating (soybean; [3]): 0
- Soybean plant response rating (soybean; [4]): 2
- Plant response rating, Soybean (soybean; [5]): 3
- Plant response rating, Soybean (soybean; [7]): 0
- Velvetleaf plant response rating (velvetleaf; [1]): 0
- Velvetleaf plant response rating (0 to 10 scale) (velvetleaf; Preemergence, Rate 125 g/ha): 0
- Velvetleaf plant response rating (velvetleaf; [2]): 0
- Velvetleaf plant response rating (velvetleaf; [3]): 0
- Velvetleaf plant response rating (velvetleaf; [4]): 0
- Plant response rating, Velvetleaf (velvetleaf; [5]): 0
- Plant response rating, Velvetleaf (velvetleaf; [7]): 4
- B. signalgrass plant response rating (surinam grass; [1]): 0
- B. signalgrass plant response rating (0 to 10 scale, 0 is no effect, 10 is complete control) (surinam grass; Preemergence, Rate 125 g/ha): 0
- B. signalgrass plant response rating (surinam grass; [2]): 0
- B. signalgrass plant response rating (surinam grass; [3]): 3
- B. signalgrass plant response rating (surinam grass; [4]): 0
- Plant response rating, B. signalgrass (surinam grass; [5]): 0
- B. signalgrass plant response rating (surinam grass; [6]): 0
- Plant response rating, B. signalgrass (surinam grass; [7]): 7
- Redroot pigweed plant response rating (pigweed; [1]): 3
- Redroot pigweed plant response rating (0 to 10 scale) (pigweed; Preemergence, Rate 125 g/ha): 0
- Redroot pigweed plant response rating (pigweed; [2]): 0
- Redroot pigweed plant response rating (pigweed; [3]): 0
- Redroot pigweed plant response rating (pigweed; [4]): 1
- Plant response rating, Redroot pigweed (pigweed; [5]): 2
- Plant response rating, Redroot pigweed (pigweed; [7]): 3
- Crabgrass plant response rating (crabgrass; [1]): 1
- Crabgrass plant response rating (0 to 10 scale) (crabgrass; Preemergence, Rate 125 g/ha): 0
- Crabgrass plant response rating (crabgrass; [2]): 2
- Crabgrass plant response rating (crabgrass; [3]): 7
- Crabgrass plant response rating (crabgrass; [4]): 0
- Plant response rating, Crabgrass (crabgrass; [5]): 0
- Plant response rating, Crabgrass (crabgrass; [7]): 7

Reference: US6737383B1, “Herbicidal oxadiazolidines” (priority 1999, dated 2004)
